We go through three compounds from publication PMC11762413 (2025).

One may read the KD as the free concentration of one partner at which half of the binding sites on the other are occupied at equilibrium, for simple one-to-one binding. A higher KD goes with a looser complex.

Test [1] deals with VAN-specific aptamer (Apt), 4trunc, in solution (DNA, aptamer) CGAGGGTACCGCAATAGTACTTATTGTTCGCCTATTGTGGGTCGG
Description: ITC. The conditions noted are these: 100 mM Na+, 100 mM K+, 10 mM Mg2+; 10 mM TRIS pH 7.4, 25 °C; 10 µM aptamer titrated with 150 µM VAN; independent sites.

Test [2] has as its system VAN-specific aptamer (Apt), 4trunc, immobilised on gold (DNA, aptamer) CGAGGGTACCGCAATAGTACTTATTGTTCGCCTATTGTGGGTCGG
As to the kind of experiment: SPR kinetics (koff/kon). The conditions noted are these: 100 mM Na+, 100 mM K+, 10 mM Mg2+; 10 mM TRIS pH 7.4; aptamer immobilised on gold chip; VAN 0.05–10 µM; 1:1 model.

The test system is the same in test [3]. Description: EIS aptasensor selectivity. The conditions noted are these: 100 mM Na+, 100 mM K+, 10 mM Mg2+, 10 mM TRIS pH 7.4, room temperature, 45 min, tested at 1 µM.

Consider `CN[C@H](CC(C)C)C(=O)N[C@H]1C(=O)N[C@@H](CC(N)=O)C(=O)N[C@H]2C(=O)N[C@H]3C(=O)N[C@H](C(=O)N[C@H](C(=O)O)c4cc(O)cc(O)c4-c4cc3ccc4O)[C@H](O)c3ccc(c(Cl)c3)Oc3cc2cc(c3O[C@@H]2O[C@H](CO)[C@@H](O)[C@H](O)[C@H]2O[C@H]2C[C@](C)(N)[C@H](O)[C@H](C)O2)Oc2ccc(cc2Cl)[C@H]1O`, for which the values for the KD in test [1] and in test [2] were 13.35 ± 2.74 µM and 18.31 ± 1.15 µM, respectively.

Regarding `OC[C@H]1OC(O)[C@H](O)[C@@H](O)[C@@H]1O` (stereo partly shown), in test [3] (10.65% of VAN signal), the binding entry was “no”.

As to `OC[C@H]1O[C@@H](O[C@H]2[C@H](O)[C@@H](O)C(O)O[C@@H]2CO)[C@H](O)[C@@H](O)[C@H]1O` (stereo partly shown), the binding entry in test [3] (9.78% of VAN signal) is “no”.
